From the supplement of paper PMC10883282
± gives the standard deviation of the averaged measurements.

Columns and labels:
Experiment in all cases: relative viability vs DMSO control (72 h) (fraction); higher = more viable cells
VA-ES-BJ = test system: VA-ES-BJ
In short: (§1)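 After seeding at densities set for 80–90% confluence in 384-well plates, sarcoma cell lines waited 24 h before 2.5 µl of serially diluted compound was added. Source plates held 10 mM down to 0.0002 mM. Plates were incubated 72 h at 37 °C with 5% CO2, with 0.1% DMSO vehicle and a 5 µM positive control, and relative viability was taken from ATPLite as percent growth averaged over up to triplicate wells, with 1 set as full and 0 as none.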

SW1353 = test system: SW1353
In short: as §1

HT1080 = test system: HT1080
In short: as §1

RD = test system: RD
In short: as §1

SW684 = test system: SW684
In short: as §1

SK-ES-1 = test system: SK-ES-1
In short: as §1

Which relative viability (VA-ES-BJ; 0.00017 µM) does the source give for `CN(C)C/C=C/C(=O)Nc1cc2c(Nc3ccc(F)c(Cl)c3)ncnc2cc1O[C@H]1CCOC1` [Afatinib] here?
Its relative viability is 1.09 ± 0.064.

What about the relative viability (VA-ES-BJ; 0.00051 µM) of the same compound?
The relative viability was 1.1 ± 0.052.

What about the relative viability (VA-ES-BJ; 0.00152 µM) of the same compound?
Its relative viability is 1.06 ± 0.042.

And the relative viability (VA-ES-BJ; 0.00457 µM)?
Its relative viability is 1.03 ± 0.055.

What about the relative viability (VA-ES-BJ; 0.01372 µM) of the same compound?
Its relative viability is 0.983 ± 0.04.

And the relative viability (VA-ES-BJ; 0.04115 µM)?
The relative viability was 0.974 ± 0.064.

What about the relative viability (VA-ES-BJ; 0.1235 µM) of the same compound?
The relative viability was 0.968 ± 0.064.

And the relative viability (VA-ES-BJ; 0.3704 µM)?
Its relative viability is 0.911 ± 0.022.

And the relative viability (VA-ES-BJ; 1.111 µM)?
The relative viability was 0.573 ± 0.027.

And the relative viability (VA-ES-BJ; 3.333 µM)?
Its relative viability is 0.351 ± 0.036.

What about the relative viability (VA-ES-BJ; 10 µM) of the same compound?
The relative viability was 0.207 ± 0.0046.

What about the relative viability (SW1353; 0.00017 µM) of the same compound?
The relative viability was 1.03 ± 0.038.

What about the relative viability (SW1353; 0.00051 µM) of the same compound?
The relative viability was 1.01 ± 0.048.

And the relative viability (SW1353; 0.00152 µM)?
The relative viability was 0.965 ± 0.012.

And the relative viability (SW1353; 0.00457 µM)?
Its relative viability is 0.923 ± 0.035.

What about the relative viability (SW1353; 0.01372 µM) of the same compound?
The relative viability was 0.822 ± 0.039.

And the relative viability (SW1353; 0.04115 µM)?
The relative viability was 0.771 ± 0.011.

What about the relative viability (SW1353; 0.1235 µM) of the same compound?
The relative viability was 0.749 ± 0.03.

And the relative viability (SW1353; 0.3704 µM)?
The relative viability was 0.653 ± 0.018.

And the relative viability (SW1353; 1.111 µM)?
Its relative viability is 0.485 ± 0.037.

And the relative viability (SW1353; 3.333 µM)?
The relative viability was 0.3677 ± 0.0033.

What about the relative viability (SW1353; 10 µM) of the same compound?
The relative viability was 0.22 ± 0.17.

What about the relative viability (HT1080; 0.00017 µM) of the same compound?
Its relative viability is 1.1 ± 0.052.

What about the relative viability (HT1080; 0.00051 µM) of the same compound?
Its relative viability is 1.12 ± 0.021.

What about the relative viability (HT1080; 0.00152 µM) of the same compound?
The relative viability was 1.1 ± 0.065.

And the relative viability (HT1080; 0.00457 µM)?
The relative viability was 1.08 ± 0.038.

What about the relative viability (HT1080; 0.01372 µM) of the same compound?
Its relative viability is 1.07 ± 0.018.

What about the relative viability (HT1080; 0.04115 µM) of the same compound?
The relative viability was 1.07 ± 0.019.

What about the relative viability (HT1080; 0.1235 µM) of the same compound?
Its relative viability is 1.11 ± 0.033.

And the relative viability (HT1080; 0.3704 µM)?
Its relative viability is 1.11 ± 0.039.

What about the relative viability (HT1080; 1.111 µM) of the same compound?
The relative viability was 1.02 ± 0.032.

What about the relative viability (HT1080; 3.333 µM) of the same compound?
Its relative viability is 0.767 ± 0.11.

And the relative viability (HT1080; 10 µM)?
The relative viability was 0.173 ± 0.099.

What about the relative viability (RD; 0.00017 µM) of the same compound?
The relative viability was 1.08 ± 0.036.

And the relative viability (RD; 0.00051 µM)?
Its relative viability is 1.13 ± 0.097.

What about the relative viability (RD; 0.00152 µM) of the same compound?
The relative viability was 1.15 ± 0.059.

And the relative viability (RD; 0.00457 µM)?
The relative viability was 1.11 ± 0.074.

What about the relative viability (RD; 0.01372 µM) of the same compound?
The relative viability was 1.11 ± 0.061.

And the relative viability (RD; 0.04115 µM)?
The relative viability was 1.07 ± 0.1.

And the relative viability (RD; 0.1235 µM)?
The relative viability was 1.09 ± 0.12.

And the relative viability (RD; 0.3704 µM)?
Its relative viability is 1.03 ± 0.086.

And the relative viability (RD; 1.111 µM)?
Its relative viability is 0.569 ± 0.061.

What about the relative viability (RD; 3.333 µM) of the same compound?
Its relative viability is 0.0531 ± 0.046.

And the relative viability (RD; 10 µM)?
The relative viability was 0.022 ± 0.0053.

What about the relative viability (SW684; 0.00017 µM) of the same compound?
The relative viability was 1.18 ± 0.045.

What about the relative viability (SW684; 0.00051 µM) of the same compound?
Its relative viability is 1.18 ± 0.038.

What about the relative viability (SW684; 0.00152 µM) of the same compound?
Its relative viability is 1.23 ± 0.062.

And the relative viability (SW684; 0.00457 µM)?
Its relative viability is 1.18 ± 0.022.

What about the relative viability (SW684; 0.01372 µM) of the same compound?
Its relative viability is 1.14 ± 0.029.

What about the relative viability (SW684; 0.04115 µM) of the same compound?
The relative viability was 1.13 ± 0.029.

And the relative viability (SW684; 0.1235 µM)?
The relative viability was 1.1 ± 0.037.

And the relative viability (SW684; 0.3704 µM)?
The relative viability was 1.04 ± 0.051.

And the relative viability (SW684; 1.111 µM)?
The relative viability was 0.816 ± 0.011.

And the relative viability (SW684; 3.333 µM)?
The relative viability was 0.527 ± 0.019.

And the relative viability (SW684; 10 µM)?
Its relative viability is 0.203 ± 0.15.

And the relative viability (SK-ES-1; 0.00017 µM)?
The relative viability was 1.01 ± 0.04.

What about the relative viability (SK-ES-1; 0.00051 µM) of the same compound?
Its relative viability is 1.05 ± 0.042.

What about the relative viability (SK-ES-1; 0.00152 µM) of the same compound?
The relative viability was 1.04 ± 0.024.

And the relative viability (SK-ES-1; 0.00457 µM)?
The relative viability was 0.988 ± 0.027.

And the relative viability (SK-ES-1; 0.01372 µM)?
The relative viability was 1.03 ± 0.007.

What about the relative viability (SK-ES-1; 0.04115 µM) of the same compound?
The relative viability was 0.959 ± 0.053.

And the relative viability (SK-ES-1; 0.1235 µM)?
Its relative viability is 0.858 ± 0.034.

And the relative viability (SK-ES-1; 0.3704 µM)?
Its relative viability is 0.676 ± 0.022.

And the relative viability (SK-ES-1; 1.111 µM)?
The relative viability was 0.306 ± 0.013.

What about the relative viability (SK-ES-1; 3.333 µM) of the same compound?
The relative viability was 0.117 ± 0.019.

And the relative viability (SK-ES-1; 10 µM)?
The relative viability was 0.113 ± 0.023.
